Source: PMC11672294, “The Antipsychotic Drug Aripiprazole Suppresses Colorectal Cancer by Targeting LAMP2a to Induce RNH1/miR‐99a/mTOR‐Mediated Autophagy and Apoptosis” (Advanced Science, 2024)
Where a name gives a salt, the structure may show the parent alone.

These compounds were tested on HT29. Settings: 72 h, relative to DMSO, 10 µM, Relative cell viability (%).
Text: To investigate the key signaling pathways and biological processes involved in CRC progression, we analyzed the National Center for Biotechnology Information Gene Expression Omnibus (GEO) dataset GSE115313, which included 42 CRC and paired normal tissues (Figure 1A). […] Next, we performed an Annexin V‐fluorescein isothiocyanate (FITC)/propidium iodide (PI) staining assay to determine the effect of aripiprazole on apoptosis in CRC cells. […] A) Principal component analysis of GEO dataset (GSE115313), which includes 42 CRC and paired normal tissues. B) Gene Ontology pathway analysis of the DEPs between CRC and paired normal tissues. […] D) Schematic diagram for identifying anticancer drugs amongst an US Food and Drug Administration‐approved small‐molecule library (616 compounds) using WST‐1 assay. E) HT29 cells were treated with the 616 drugs (10 µM) individually or with dimethyl sulfoxide for 72 h, followed by WST‐1 assay. […] J) Mice bearing HT29‐derived tumor xenografts were intragastrically administered with aripiprazole (10 or 20 mg kg^−1) once every 2 d, n = 6 mice/group. […] Bars, SD; ^* p < 0.05; ^** p < 0.01; ^*** p < 0.001; ns, no significant difference. The WST‐1 Cell Proliferation and Cytotoxicity Assay Kit (Beyotime Biotechnology, Shanghai, China) was used to measure cell viability, as described previously.^[ [10] ^] CRC cells were seeded into 96‐well plates and treated with different drug concentrations. Following that, WST‐1 was added to the plate and incubated with the cells for 2 h, at 37 °C. Absorbance at the wavelength of 450 nm was measured using an automated microplate spectrophotometer (BioTek Instruments, Winooski, VT, USA).
`C[C@@H]1CCN(C(=O)CC#N)C[C@@H]1N(C)c1ncnc2[nH]ccc12` [Tofacitinib (CP-690550) Citrate] was tested, and the “Relative cell viability (%)” value was 115%. `CC/C(=C(\c1ccccc1)c1ccc(OCCN(C)C)cc1)c1ccccc1` [Tamoxifen] was tested, and the “Relative cell viability (%)” value was 18.22%. In the case of `CN1CCN(c2ccc3nc(-c4c(N)c5c(F)cccc5[nH]c4=O)[nH]c3c2)CC1` [Dovitinib (TKI258) Lactate], the “Relative cell viability (%)” value is reported as 3.419%.

Same assay, conditions: 72 h, relative to DMSO; 10 µM
`COC(=O)Nc1nc2cc(C(=O)c3ccc(F)cc3)ccc2[nH]1` [Flubendazole] was tested, and the “Relative cell viability (%)” value was 16.95%. In the case of `COc1ccc(NS(=O)(=O)c2ccc(N)cc2)nn1` [Sulfamethoxypyridazine], the “Relative cell viability (%)” value is reported as 72.12%. With `CC(C)c1nc(CN(C)C(=O)N[C@@H](CCN2CCOCC2)C(=O)N[C@H](CC[C@H](Cc2ccccc2)NC(=O)OCc2cncs2)Cc2ccccc2)cs1` [Cobicistat (GS-9350)] the “Relative cell viability (%)” value was 63.59%. For `Cn1ncc(Cl)c1-c1cc(C(=O)N[C@H](CN)Cc2cccc(F)c2)sc1Cl` [Afuresertib (GSK2110183)], the “Relative cell viability (%)” value was 13.68%. With `COC(=O)C1=C(C#N)NC(C)=C(C(=O)OC(C)C)C1c1cccc([N+](=O)[O-])c1` (stereo not shown) [Nilvadipine] the “Relative cell viability (%)” value was 81.07%. For `COc1ccc(C[C@@H](C)NC[C@H](O)c2ccc(O)c(NC=O)c2)cc1` (racemic) [Formoterol Hemifumarate], the “Relative cell viability (%)” value was 95.63%. For `COCCCC/C(=N\OCCN)c1ccc(C(F)(F)F)cc1` [Fluvoxamine maleate], the “Relative cell viability (%)” value was 72.74%. `O=C(N/N=C/c1ccc([N+](=O)[O-])o1)c1ccc(O)cc1` [Nifuroxazide] was tested, and the “Relative cell viability (%)” value was 43.03%. With `CN(C)CCc1c[nH]c2ccc(CS(=O)(=O)N3CCCC3)cc12` [Almotriptan Malate] the “Relative cell viability (%)” value was 113.8%. `O=c1cc[nH]c(=O)[nH]1` [Uracil] was tested, and the “Relative cell viability (%)” value was 73.94%. `NCCc1c[nH]c2ccc(O)cc12` [Serotonin HCl] was tested, and the “Relative cell viability (%)” value was 86.67%. In the case of `CCOC(=O)[C@H](CCc1ccccc1)N[C@H]1CS[C@H](c2cccs2)CN(CC(=O)O)C1=O` [Temocapril HCl], the “Relative cell viability (%)” value is reported as 117.3%. In the case of `CCCCOc1cc(C(=O)OCCN(CC)CC)ccc1N` [Oxybuprocaine HCl], the “Relative cell viability (%)” value is reported as 56.67%. In the case of `Cc1cn([C@H]2O[C@@H](CO)[C@H](O)[C@H]2F)c(=O)[nH]c1=O` [Clevudine], the “Relative cell viability (%)” value is reported as 97.09%. For `CCC(=O)NCC[C@@H]1CCc2ccc3c(c21)CCO3` [Ramelteon], the “Relative cell viability (%)” value was 64.95%. In the case of `O=c1sn(-c2cccc3ccccc23)c(=O)n1Cc1ccccc1` [Tideglusib], the “Relative cell viability (%)” value is reported as 51.94%. For `O=S(=O)(O)CCS` [Mesna], the “Relative cell viability (%)” value was 56.36%. For `CCOC(=O)C1=C(C)NC(C)=C(C(=O)OC)C1c1cccc(Cl)c1Cl` (stereo not shown) [Felodipine], the “Relative cell viability (%)” value was 60.17%. `CCCCc1oc2ccc(NS(C)(=O)=O)cc2c1C(=O)c1ccc(OCCCN(CCCC)CCCC)cc1` [Dronedarone HCl] was tested, and the “Relative cell viability (%)” value was 86.05%. In the case of `CC1Cc2ccccc2N1NC(=O)c1ccc(Cl)c(S(N)(=O)=O)c1` (stereo not shown) [Indapamide], the “Relative cell viability (%)” value is reported as 71.61%. `CC[C@@H]1C(=O)N(C)c2cnc(Nc3ccc(C(=O)N[C@H]4CC[C@H](N5CCN(CC6CC6)CC5)CC4)cc3OC)nc2N1C(C)C` [Volasertib (BI 6727)] was tested, and the “Relative cell viability (%)” value was 88.41%. `O=C(O)Cc1cc(I)c(Oc2ccc(O)c(I)c2)c(I)c1` [Tiratricol] was tested, and the “Relative cell viability (%)” value was 83.03%. For `CCN(CC)CC#CCOC(=O)C(O)(c1ccccc1)C1CCCCC1` (stereo not shown) [Oxybutynin], the “Relative cell viability (%)” value was 58.9%. For `CNC(=O)c1ccc(N2C(=S)N(c3ccc(C#N)c(C(F)(F)F)c3)C(=O)C2(C)C)cc1F` [Enzalutamide (MDV3100)], the “Relative cell viability (%)” value was 86.76%. For `COc1cc(C)c(/C=C/C(C)=C/C=C/C(C)=C/C(=O)O)c(C)c1C` [Acitretin], the “Relative cell viability (%)” value was 60.28%. In the case of `CCN1CCN(Cc2ccc(Nc3ncc(F)c(-c4cc(F)c5nc(C)n(C(C)C)c5c4)n3)nc2)CC1` [LY2835219], the “Relative cell viability (%)” value is reported as 5.983%. With `CC(=O)O[C@@]12CO[C@@H]1C[C@H](O)[C@@]1(C)C(=O)[C@H](O)C3=C(C)[C@@H](OC(=O)[C@H](O)[C@@H](NC(=O)OC(C)(C)C)c4ccccc4)C[C@@](O)([C@@H](OC(=O)c4ccccc4)[C@H]21)C3(C)C` [Docetaxel Trihydrate] the “Relative cell viability (%)” value was 23.93%. `Cn1ncc(Cl)c1-c1cc(C(=O)N[C@H](CN)Cc2ccc(F)c(F)c2)oc1Cl` [Uprosertib (GSK2141795)] was tested, and the “Relative cell viability (%)” value was 4.701%. With `O=C(NC1CCN(CCCCC2(C(=O)NCC(F)(F)F)c3ccccc3-c3ccccc32)CC1)c1ccccc1-c1ccc(C(F)(F)F)cc1` [Lomitapide Mesylate] the “Relative cell viability (%)” value was 0%. With `CNC1CCCN(c2c(F)cc3c(=O)c(C(=O)O)cn(C4CC4)c3c2OC)C1` (stereo not shown) [Balofloxacin] the “Relative cell viability (%)” value was 111.9%. For `Cc1nnc(C(C)C)n1[C@@H]1C[C@H]2CC[C@@H](C1)N2CC[C@H](NC(=O)C1CCC(F)(F)CC1)c1ccccc1` [Maraviroc], the “Relative cell viability (%)” value was 135.7%. With `C[N+](C)(C)C[C@H](O)CC(=O)[O-]` [L-carnitine] the “Relative cell viability (%)” value was 116.1%. For `CC(C[N+](C)(C)C)OC(N)=O` (stereo not shown) [Bethanechol chloride], the “Relative cell viability (%)” value was 104.3%. For `CNC(=O)c1cc(Oc2ccc(NC(=O)Nc3ccc(Cl)c(C(F)(F)F)c3)cc2)ccn1` [Sorafenib], the “Relative cell viability (%)” value was 21.37%. In the case of `COc1cc(C(=O)O)ccc1NC(=O)[C@@H]1N[C@@H](CC(C)(C)C)[C@](C#N)(c2ccc(Cl)cc2F)[C@H]1c1cccc(Cl)c1F` [Idasanutlin (RG-7388)], the “Relative cell viability (%)” value is reported as 98.29%. `O=C(O)CCCN1CCC(O[C@@H](c2ccc(Cl)cc2)c2ccccn2)CC1` [Bepotastine Besilate] was tested, and the “Relative cell viability (%)” value was 89.81%. For `C/C(=C\c1csc(C)n1)[C@@H]1C[C@@H]2O[C@]2(C)CCC[C@H](C)[C@H](O)[C@@H](C)C(=O)C(C)(C)[C@@H](O)CC(=O)O1` [Epothilone B (EPO906, Patupilone)], the “Relative cell viability (%)” value was 7.321%. For `CC(=O)O[C@]1(C(C)=O)CC[C@H]2[C@@H]3C=C(C)C4=CC(=O)CC[C@]4(C)[C@H]3CC[C@@]21C` [Megestrol Acetate], the “Relative cell viability (%)” value was 68.07%. `CN1CCN(c2ccc(C(=O)Nc3n[nH]c4ccc(Cc5cc(F)cc(F)c5)cc34)c(NC3CCOCC3)c2)CC1` [Entrectinib (RXDX-101)] was tested, and the “Relative cell viability (%)” value was 2.137%. With `CN(C)[C@@H]1C(O)=C(C(N)=O)C(=O)[C@@]2(O)C(O)=C3C(=O)c4c(O)cccc4[C@@](C)(O)[C@H]3[C@H](O)[C@@H]12` [Oxytetracycline Dihydrate] the “Relative cell viability (%)” value was 170.4%. With `CS(=O)(=O)c1ccc(C2=C(c3ccccc3)C(=O)OC2)cc1` [Rofecoxib] the “Relative cell viability (%)” value was 116%. In the case of `C[C@@H]1CC[C@H]2[C@@H](C)C(=O)O[C@@H]3O[C@@]4(C)CC[C@@H]1[C@]32OO4` [Artemisinin], the “Relative cell viability (%)” value is reported as 110.1%. For `c1ccc(CN(CC2=NCCN2)c2ccccc2)cc1` [Antazoline HCl], the “Relative cell viability (%)” value was 63.94%. With `OC(CCCN1CCCCC1)(c1ccccc1)c1ccccc1` [Diphenidol HCl] the “Relative cell viability (%)” value was 59.39%. For `CC(C)OC(=O)[C@H](C)N[P@](=O)(CO[C@H](C)Cn1cnc2c(N)ncnc21)Oc1ccccc1` [Tenofovir Alafenamide (GS-7340)], the “Relative cell viability (%)” value was 125.2%. With `O=C1OC(CN2CCOCC2)CN1/N=C/c1ccc([N+](=O)[O-])o1` (stereo not shown) [Furaltadone HCl] the “Relative cell viability (%)” value was 75.76%. With `C[C@]12CCC3=C4CCC(=O)C=C4CC[C@H]3[C@@H]1CC[C@@]2(O)CC#N` [Dienogest] the “Relative cell viability (%)” value was 96.11%. For `CCCc1cc(=O)[nH]c(=S)[nH]1` [Propylthiouracil], the “Relative cell viability (%)” value was 201.3%. In the case of `[H]/N=C(/N)NS(=O)(=O)c1ccc(N)cc1` [Sulfaguanidine], the “Relative cell viability (%)” value is reported as 70.303%. `CCCCCCCCOc1ccccc1C(=O)Nc1ccc(C(=O)OCC[N+](C)(CC)CC)cc1` [Otilonium Bromide] was tested, and the “Relative cell viability (%)” value was 59.22%. With `Cc1c(Cl)cccc1Nc1ccccc1C(=O)O` [Tolfenamic Acid] the “Relative cell viability (%)” value was 166.2%. For `CC#CCn1c(N2CCC[C@@H](N)C2)nc2c1c(=O)n(Cc1nc(C)c3ccccc3n1)c(=O)n2C` [Linagliptin], the “Relative cell viability (%)” value was 66.5%. `Sc1ncnc2nc[nH]c12` [Mercaptopurine (6-MP)] was tested, and the “Relative cell viability (%)” value was 52.49%. For `Cc1cc(O)ccc1Cl` [Chlorocresol], the “Relative cell viability (%)” value was 65.76%. With `CCCCNC(=O)NS(=O)(=O)c1ccc(C)cc1` [Tolbutamide] the “Relative cell viability (%)” value was 106.1%. `C=CC(=O)N1CCC[C@@H](n2nc(-c3ccc(Oc4ccccc4)cc3)c3c(N)ncnc32)C1` [Ibrutinib (PCI-32765)] was tested, and the “Relative cell viability (%)” value was 53.4%.

Same assay, conditions: ht29 cells, 72 h, 10 µM
In the case of `O=C(Nc1nc2cccc(-c3ccc(CN4CCS(=O)(=O)CC4)cc3)n2n1)C1CC1` [Filgotinib (GLPG0634)], the “Relative cell viability (%)” value is reported as 50.85%. With `CC[C@H]1OC(=O)[C@H](C)[C@@H](O[C@H]2C[C@@](C)(OC)[C@@H](O)[C@H](C)O2)[C@H](C)[C@@H](O[C@@H]2O[C@H](C)C[C@H](N(C)C)[C@H]2O)[C@](C)(O)C[C@@H](C)[C@@H]2N[C@@H](COCCOC)O[C@H]([C@H]2C)[C@]1(C)O` [Dirithromycin] the “Relative cell viability (%)” value was 84.85%.
